{"source": "patent US12663426B2", "about": "“Method and composition for measurement of nitric oxide” (The University of Chicago, priority 2019, dated 2026)", "key": {"NOS3": {"tested_on": "NOS3", "experiment": "Sub-cellular nitric oxide quantification (rate of NO production, in-cell calibration)", "assay_type": "cell-based", "conditions": "T-47D cells, 1 μM thapsigargin", "experimental": "(§1) Sub-cellular nitric oxide quantification. […] (FIG. 16).\nAfter characterizing NO releasing profile of DEA NONOate, cellular NO production was compared to NO released from DEA-NONOate. […] As expected G/B intensity increases over time and the rate of increase is proportional to DEA-NONOate concentration. Then 1 μM thapsigargin was added to get the initial rate of NO production at the plasma membrane.\nNote this only applies to the initial phase of DAR activation where [DAR] can be considered as constant. From the predicted [NO] from DEA-NONOate, the tested concentration of NONOate, the first 30 s [NO] increases with t. […]\nUsing the calibration curve, the initial G/B rates from thapsigargin treated cells is plugged in and the plasma membrane NO production was measured to be 576±61 nM/s (FIG. 3e).\nNext, in order to measure the relative activities of NOS3 at the plasma membrane and the TGN, a method was developed to quantify sub-cellular NO generated due to NOS3 activity. […] As the effective concentration of NO at any time, [NO]eff, changes with time, NOS3 activity is best quantified by the rate of NO production. […]\nAn in-cell calibration protocol was developed to measure the rate of NO production for various concentrations of DEA-NONOate using NOckout probes. […] NOckout^PM labeled cells was then treated with 1 μM thapsigargin and measured the rate of NO production given by the increasing G/B ratio. […]"}, "[1]": {"experiment": "Decomposition / NO release of DEA NONOate", "assay_type": "physicochemical", "text": "as §1\nAdditionally, DEA-NONOate concentration follows first order decay and can be described with initial DEA-NONOate concentration (indicated by [NONOate]0).\nNext, in order to measure the relative activities of NOS3 at the plasma membrane and the TGN, a method was developed to quantify sub-cellular NO generated due to NOS3 activity. […] As the effective concentration of NO at any time, [NO]eff, changes with time, NOS3 activity is best quantified by the rate of NO production. Therefore, the decomposition rate constant (k1 sec^−1) of DEA-NONOate was first measured from its UV absorbance at 250 nm, to obtain [NO]eff over time in solution for fixed DEA-NONOate concentrations (FIG. 17a, Methods) (Ramamurthi, A. & Lewis, R. S. Measurement and modeling of nitric oxide release rates for nitric oxide donors. Chem. Res. Toxicol. 10, 408-413 (1997)). […]\nIn vitro fluorescence measurements: All fluorescence studies were carried out on a Fluoromax-4 (Horiba Scientific, Japan) spectrophotometer. […] Fluorescence emission spectra were collected in the range of 560-620 nm (slit width=2 nm) for DAR and 655-700 nm (slit width=2 nm) for A647N. […] Fluorescence signal from NOckout. […] was recorded sequentially in the DAR (G) and A647N (R) channels before and after the addition of DEANONOate (30 μM) at timed intervals (30 s). […]"}, "[2]": {"conditions": "37° C., 100 mM phosphate buffer (pH 7.4); cited from earlier work"}, "NOS2": {"target": "T1, NOS2 (Mus musculus, UniProt P29477)", "T1 construct": "J774A.1 cells were treated with 1 μg/mL LPS for 12 h prior to the addition of NOckout; endogenous in cells; host or cells: J774A.1 macrophages primed with LPS", "experiment": "In cellulo specificity of NOckout to NO in LPS primed J774A.1 cells", "assay_type": "cell-based", "conditions": "J774 cells, LPS; VAS2870 10 μM, ABAH 50 μM", "procedure": "Pharmacological inhibition: Pharmacological inhibition of different enzymes were performed by employing known inhibitors. […] Cells were bathed in inhibitors 1 h prior to the addition of NOckout probes during the specificity experiment performed in J774A.1 cells.\nIn cellulo specificity of NOckout to NO: In cellulo specificity of the NOckout probe towards NO^− was validated in J774A.1 cells. […] J774A.1 cells were treated with 1 μg/mL LPS for 12 h prior to the addition of NOckout (500 nM in HBSS) either in the presence or in absence of specific inhibitors. LPS addition was employed to induce the expression of NOS2NOX and MPO. […] After 90 minutes of incubation with the NOckout culture media was removed from the cells and three washes were performed using HBSS to remove extracellular NOckout before proceeding to the fluorescence imaging. […]\nThe in-cell specificity of NOckout can be evaluated by measuring the contribution of the reactive species produced by NOX, MPO and NOS2 to the observed fold change in G/R ratio upon LPS stimulation. […] As NOS2 activity is not pan-endosomal, specificity is given by quantifying the percentage of endosomes that show G/R values higher than the mean G/R value in endosomes of unstimulated, NOS2 inhibited cells, as the latter corresponds to basal endosomal NO levels (FIG. 6c)."}, "murine TLR-9": {"target": "T2, murine TLR-9 (Mus musculus, UniProt Q9EQU3)", "T2 construct": "endogenous in cells; host or cells: primary microglia from C57BL/6 mice", "T2 sequence (Q9EQU3 26-1032)": "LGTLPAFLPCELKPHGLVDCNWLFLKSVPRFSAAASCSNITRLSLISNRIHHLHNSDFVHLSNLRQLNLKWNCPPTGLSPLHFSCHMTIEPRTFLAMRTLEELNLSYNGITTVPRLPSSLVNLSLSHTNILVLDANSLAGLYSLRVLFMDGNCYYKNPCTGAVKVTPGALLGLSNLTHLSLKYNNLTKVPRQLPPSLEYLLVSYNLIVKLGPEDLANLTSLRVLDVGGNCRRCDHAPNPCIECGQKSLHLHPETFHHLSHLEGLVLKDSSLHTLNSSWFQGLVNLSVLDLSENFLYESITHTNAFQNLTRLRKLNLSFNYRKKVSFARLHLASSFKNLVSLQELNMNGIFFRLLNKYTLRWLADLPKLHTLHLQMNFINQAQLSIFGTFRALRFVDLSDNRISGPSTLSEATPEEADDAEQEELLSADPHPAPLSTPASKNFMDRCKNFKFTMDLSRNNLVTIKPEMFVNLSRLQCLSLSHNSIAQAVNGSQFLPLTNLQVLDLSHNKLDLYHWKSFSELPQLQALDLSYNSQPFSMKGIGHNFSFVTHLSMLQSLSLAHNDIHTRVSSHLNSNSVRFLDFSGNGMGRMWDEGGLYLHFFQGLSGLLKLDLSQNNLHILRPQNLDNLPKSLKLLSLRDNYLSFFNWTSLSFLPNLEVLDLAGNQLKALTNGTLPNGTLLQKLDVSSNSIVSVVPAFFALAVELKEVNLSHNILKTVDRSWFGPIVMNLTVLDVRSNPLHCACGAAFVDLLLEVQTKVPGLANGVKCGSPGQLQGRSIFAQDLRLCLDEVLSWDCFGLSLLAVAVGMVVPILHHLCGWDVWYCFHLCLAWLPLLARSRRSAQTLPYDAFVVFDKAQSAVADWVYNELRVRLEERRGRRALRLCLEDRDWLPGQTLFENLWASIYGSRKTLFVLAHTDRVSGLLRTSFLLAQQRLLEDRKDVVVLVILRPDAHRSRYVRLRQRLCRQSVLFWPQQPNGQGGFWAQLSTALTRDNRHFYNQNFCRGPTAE", "experiment": "Endosomal NO in primary mouse microglia with NOckout^mCpG", "assay_type": "cell-based", "conditions": "primary microglia, versus NOckout^mCpG, n=100 endosomes", "text": "Image analysis: A MATLAB based program called Findosome was used to calculate the (G/R) values of individual endosomes from the acquired images. Maximum Z-projected images created using Fiji (NIH) were fed to Findosome to pick endosomal compartments as ROI corresponding to individual endosomes based on the A647 channel intensity. For each ROI, the program calculates fluorescence intensities both in the normalizing channel (A647, R) as well as in the DAR (G) channel. The results were exported as an excel file. From the results, (G/R) value for individual endosomes can be calculated. Phagosomal (G/R) values from the zebrafish microglia are calculated using Fiji software. Images were imported to Fiji and maximum Z-projected images were created. ROI were manually drawn around clearly identifiable phagosomes using the normalizing channel A647 intensity. Fluorescence intensities in A647 and DAR channels were calculated. G/R values are either represented as heat map images using Fiji or as bar graph using Origin software. Intracellular measurements of (G/R) values was performed in GFP colocalized microglia. For (G/R) ratio quantification experiments, only those vesicles that are present in both green (G) and red (R) channels were considered. […]"}, "TNF-α": {"tested_on": "TNF-α", "experiment": "TNF-α quantification by ELISA in J774A.1 cells", "assay_type": "cell-based", "conditions": "500 nM, 2 h", "experimental": "TNF-α Quantification: To quantify the immunogenicity NOckout probes and the corresponding immunogen alone, ELISA for TNF-α was performed in J774A.1 cells. Briefly, J774A.1 cells cultured in DMEM were incubated with 500 nM NOckout sensors, CpG nucleotides, RNA, or LPS at 37° C. for 2 h. Postincubation 100 μL of extracellular medium from the culture was used to perform TNF-α quantification using ELISA kit (Cayman, catalog number 500850) according to manufacturers instructions. The calibration curve for TNF-α was generated using recombinant. TNF-α as per the vendor's instructions.\nWe treated J774A.1 cells with each PAMP motif, for example mCpG, zCpG, RNA, or iRNA and their corresponding NOckout display vairent and quantified TNFα in the extracellular milieu by enzyme-linked immunisorbent assay (ELISA) (FIG. 47). […] This is because, beyond 2 h in cell culture, the probe is degraded in lysosomes, likely by DNase II, NOckout probes therefore can reliably report on endosomal NO levels only up to 2 h postinternalization (FIG. 45)."}}, "note": "Where two headings read alike, the source gives them in different places.", "data": [{"compound": "C/C=C(/C)C(=O)O[C@H]1C(C)=C2[C@H]([C@@H]1OC(=O)CCCCCCC)[C@@](C)(OC(C)=O)C[C@H](OC(=O)CCC)[C@@]1(O)[C@H]2OC(=O)[C@@]1(C)O", "note": "[thapsigargin]", "values": [{"measurement": "rate of NO production at the plasma membrane", "setting": "NOS3; NOckout^PM", "value": "576 ± 61", "unit": "nM/s"}, {"measurement": "initial rate of NO production at the TGN", "setting": "NOS3; NOckout^TGN", "value": "74 ± 41", "unit": "nM/s"}]}, {"compound": "CCN(CC)/[N+]([O-])=N/O.CCNCC", "note": "[DEA NONOate, Diethylamine NONOate]", "values": [{"measurement": "k1, decomposition rate constant", "setting": "[1]; calculated from UV absorption at 250 nm", "value": 0.00131, "unit": "s⁻¹"}, {"measurement": "half-life", "setting": "[1]; pH 7.4 at 25° C.", "value": "about 9 min"}, {"measurement": "half-life", "setting": "[2]", "value": 2, "unit": "min"}]}, {"compound": "c1ccc(Cn2nnc3c(Sc4nc5ccccc5o4)ncnc32)cc1", "note": "[VAS2870]", "values": [{"measurement": "NO signal of NOckout with inhibitor", "setting": "NOS2", "value": "did not reduce NO signal"}]}, {"compound": "NOckout^mGpC: control of NOckout^mCpG with non-immunostimulatory GpC motifs (TGCTGTCTGGTGTGCAGTGTTGATTTTCCATGAGCTTCCTGACCTT; DNA nanodevice strand, phosphorothioate ODN overhang and dyes, pattern not given here)", "values": [{"measurement": "reduction of NO-rich endosomes", "setting": "murine TLR-9", "value": 40, "unit": "%"}, {"measurement": "TNF-α in the extracellular milieu", "setting": "TNF-α", "value": "dramatic reduction in TNF-α levels"}]}]}
